Key:
Assay type in all cases: cell-based
[1] = tested on: MOLM-13 cells; test: Cell viability assay (CELLTITER-GLO), MOLM-13 cells; details: Homo sapiens, MOLM-13, 72 h; Table 2; compound at 10 μM, 3 days; read-out: Effect on MOLM-13 cell viability (% DMSO)
How it was run: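 Viability, as % of DMSO control, was read by CellTiter-Glo luminescence after a 3-day compound exposure (single dose of 10 μM or 1 μM) at 37 °C. Cells plated at 4,000/well in RPMI 1640 with 10% FBS. Results reported as categories A <10%, B 10–<25%, C 25–<50%, D ≥50%.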

[2] = tested on: H358 cells; test: Cell viability assay (CELLTITER-GLO), H358 cells; details: Table 4; 3 days
How it was run: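 Luminescent ATP read-out (CellTiter-Glo) after 3-day incubation at 37 °C of H358 cells plated at 4,000/well in RPMI 1640 with 10% FBS. Values are either IC50 bins (A ≤1 μM through D >10 μM) or % of DMSO viability at 10 μM or 1 μM, bins A <10% through D ≥50%.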

[3] = tested on: H23 cells; test: Cell viability assay (CELLTITER-GLO), H23 cells; details: Table 4; 3 days
How it was run: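 Luminescent CellTiter-Glo readout after 3-day compound treatment (37° C, 5% CO2) of H23 cells plated at 4,000 cells/well in RPMI 1640 plus 10% FBS, DMSO as control. IC50 values given as categorical ranges.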

Row | SMILES | Inhibition of H358 cells, IC50 (class) [2] | viability at 10 µM [1] | Inhibition of H23 cells, IC50 (class) [3]
1 | C=CC(=O)N1CC(N2Cc3ccc(-c4cc(O)cc5ccccc45)cc3N(CCOCCOCCOCCNc3ccc4c(c3)C(=O)N(C3CCC(=O)NC3=O)C4=O)C2=O)C1 (stereo not drawn) [Compound 40, 5-((2-(2-(2-(2-(3-(1-Acryloylazetidin-3-yl)-7-(3-hydroxynaphthalen-1-yl)-2-oxo-3,4-dihydroquinazolin-1(2H)-yl)ethoxy)ethoxy)ethoxy)ethyl)amino)-2-(2,6-dioxopiperidin-3-yl)isoindoline-1,3-dione] | B′ | < 10% | B′
2 | CCC(=O)N1CCN(c2ncnc3c(F)c(-c4c(F)cccc4OCCNCC(=O)N4CCC(C#Cc5cccc6c5CN(C5CCC(=O)NC5=O)C6=O)CC4)c(Cl)cc23)CC1 (stereo not drawn) [Compound 133, 3-(4-((1-((2-(2-(6-Chloro-8-fluoro-4-(4-propionylpiperazin-1-yl)quinazolin-7-yl)-3-fluorophenoxy)ethyl)glycyl)piperidin-4-yl)-1λ^5-ethynyl)-1-oxoisoindolin-2-yl)piperidine-2,6-dione] | D′ | ≥ 50% | D′
3 | CCC(=O)N1CCN(c2ncnc3c(F)c(-c4c(F)cccc4OCCCNCc4ccc(COc5cccc6c5CN([C@H]5CCC(=O)NC5=O)C6=O)cc4)c(Cl)cc23)CC1 [Compound 63, (3S)-3-(4-((4-(((3-(2-(6-Chloro-8-fluoro-4-(4-propionylpiperazin-1-yl)quinazolin-7-yl)-3-fluorophenoxy)propyl)amino)methyl)benzyl)oxy)-1-oxoisoindolin-2-yl)piperidine-2,6-dione] | C′ | 10 to 25% | C′
4 | C=C(Cl)C(=O)N1CCN(c2ncnc3c(F)c(-c4c(F)cccc4OCCC4CCC(CCN5CCC(c6cc(F)cc7c6CN(C6CCC(=O)NC6=O)C7=O)CC5)CC4)c(Cl)cc23)CC1 (stereo not drawn) [Compound 110, 3-(4-(1-(2-(4-(2-(2-(6-Chloro-4-(4-(2-chloroacryloyl)piperazin-1-yl)-8-fluoroquinazolin-7-yl)-3-fluorophenoxy)ethyl)cyclohexyl)ethyl)piperidin-4-yl)-6-fluoro-1-oxoisoindolin-2-yl)piperidine-2,6-dione] | B′ | < 10% | A′
5 | CCC(=O)N1C[C@@H]2C(=O)N(CCCCCCCN3CCC(c4cc(F)cc5c4CN(C4CCC(=O)NC4=O)C5=O)CC3)c3cnc4c(F)c(-c5c(O)cccc5F)c(Cl)cc4c3N2C[C@H]1C (stereo partly drawn) [Compound 67, 3-(4-(1-(7-((2R,4aR)-11-Chloro-9-fluoro-10-(2-fluoro-6-hydroxyphenyl)-2-methyl-5-oxo-3-propionyl-1,2,3,4,4a,5-hexahydro-6H-pyrazino[11′,2′:4,5]pyrazino[2,3-c]quinolin-6-yl)heptyl)piperidin-4-yl)-6-fluoro-1-oxoisoindolin-2-yl)piperidine-2,6-dione] | B′ | < 10% | B′
6 | CCC(=O)N1CCN(c2ncnc3c(F)c(-c4c(F)cccc4OCCCCCCCCCCC(=O)N[C@H](C(=O)N4C[C@H](O)C[C@H]4C(=O)NCc4ccc(-c5scnc5C)cc4)C(C)(C)C)c(Cl)cc23)CC1 [Compound 77, (2S,4R)-1-((2S)-2-(11-(2-(6-Chloro-8-fluoro-4-(4-propionylpiperazin-1-yl)quinazolin-7-yl)-3-fluorophenoxy)undecanamido)-3,3-dimethylbutanoyl)-4-hydroxy-N-(4-(4-methylthiazol-5-yl)benzyl)pyrrolidine-2-carboxamide] | C′ | ≥ 50% | D′

Now from value to molecule, other results behind:

Row | Inhibition of H358 cells, IC50 (class) [2] | SMILES | viability at 10 µM [1] | Inhibition of H23 cells, IC50 (class) [3]
7 | B′ | CC(C)/C=C(\Cl)C(=O)N1CCN(c2ncnc3c(F)c(-c4c(F)cccc4OCCCCCCCN4CCC(c5cc(F)cc6c5CN(C5CCC(=O)NC5=O)C6=O)CC4)c(Cl)cc23)CC1 (stereo not drawn) [Compound 97, (Z)-3-(4-(1-(7-(2-(6-Chloro-4-(4-(2-chloro-4-methylpent-2-enoyl)piperazin-1-yl)-8-fluoroquinazolin-7-yl)-3-fluorophenoxy)heptyl)piperidin-4-yl)-6-fluoro-1-oxoisoindolin-2-yl)piperidine-2,6-dione] | < 10% | B′
8 | A′ | C=C(Cl)C(=O)N1CCN(c2ncnc3c(F)c(-c4c(F)cccc4OCCCCCN4CCC(c5cc(F)cc6c5CN(C5CCC(=O)NC5=O)C6=O)CC4)c(Cl)cc23)CC1 (stereo not drawn) [Compound 103, 3-(4-(1-(5-(2-(6-Chloro-4-(4-(2-chloroacryloyl)piperazin-1-yl)-8-fluoroquinazolin-7-yl)-3-fluorophenoxy)pentyl)piperidin-4-yl)-6-fluoro-1-oxoisoindolin-2-yl)piperidine-2,6-dione] | < 10% | A′
9 | B′ | CCC(=O)N1CCN(c2ncnc3c(F)c(-c4c(F)cccc4OCCCCCCCN4CCC(c5scc6c5CN(C5CCC(=O)NC5=O)C6=O)CC4)c(Cl)cc23)CC1 (stereo not drawn) [Compound 71, 3-(1-(1-(7-(2-(6-chloro-8-fluoro-4-(4-propionylpiperazin-1-yl)quinazolin-7-yl)-3-fluorophenoxy)heptyl)piperidin-4-yl)-4-oxo-4H-thieno[3,4-c]pyrrol-5(6H)-yl)piperidine-2,6-dione] | < 10% | B′
10 | B′ | C=C(Cl)C(=O)N1CCN(c2ncnc3c(F)c(-c4c(F)cccc4OCCC4CCC(CCN5CCC(c6cc(F)cc7c6CN(C6CCC(=O)NC6=O)C7=O)CC5)C4)c(Cl)cc23)CC1 (stereo not drawn) [Compound 130, 3-(4-(1-(2-(3-(2-(2-(6-Chloro-4-(4-(2-chloroacryloyl)piperazin-1-yl)-8-fluoroquinazolin-7-yl)-3-fluorophenoxy)ethyl)cyclopentyl)ethyl)piperidin-4-yl)-6-fluoro-1-oxoisoindolin-2-yl)piperidine-2,6-dione] | < 10% | A′
11 | A′ | C=C(Cl)C(=O)N1CCN(c2ncnc3c(F)c(-c4c(F)cccc4OCCCCCCCN4CCC(c5cc(F)cc6c5CN(C5CCC(=O)NC5=O)C6=O)CC4)c(Cl)cc23)CC1 (stereo not drawn) [Compound 43, 3-(4-(1-(7-(2-(6-Chloro-4-(4-(2-chloroacryloyl)piperazin-1-yl)-8-fluoroquinazolin-7-yl)-3-fluorophenoxy)heptyl)piperidin-4-yl)-6-fluoro-1-oxoisoindolin-2-yl)piperidine-2,6-dione] | < 10% | A′
12 | B′ | C=C(Cl)C(=O)N1CCN(c2ncnc3c(F)c(-c4c(F)cccc4OCCN4CCC(CCN5CCC(c6cc(F)cc7c6CN(C6CCC(=O)NC6=O)C7=O)CC5)CC4)c(Cl)cc23)CC1 (stereo not drawn) [Compound 120, 3-(4-(1-(2-(1-(2-(2-(6-Chloro-4-(4-(2-chloroacryloyl)piperazin-1-yl)-8-fluoroquinazolin-7-yl)-3-fluorophenoxy)ethyl)piperidin-4-yl)ethyl)piperidin-4-yl)-6-fluoro-1-oxoisoindolin-2-yl)piperidine-2,6-dione] | < 10% | B′

From US12630547B2, “RAS protein degraders, pharmaceutical compositions thereof, and their therapeutic applications” (BioTheryX, Inc., priority 2019, dated 2026)
